From patent US6472369B1, “Anticancer compounds and methods” (The Regents of the University of Michigan, priority 1996, dated 2002)
Where no end group is shown, it is not given here. [ ]: non-standard residue; d: D form. hCys = N[C@@H](CCS)C(=O)O

Legend:
[1] = system: rat metastatic prostate carcinoma MatLyLu (MLL) cells; assay: SU-ECM invasion assay, rat MatLyLu prostate carcinoma cells; assay type: cell-based; details: 10% FCS, FIG. 8
Protocol: (§1) Adult Strongylocentrotus purpuratus sea urchins were obtained from Pacific BioMarine, and their embryos were cultured to the early pluteus stage in artificial sea water at 15° C. SU-ECM were prepared from them by treatment with nonionic detergent and strerilized by dilution in the appropriate media.
(§2) Cells were harvested by rinsing in Hanks' balanced salt solution, followed by brief treatment with 0.25% trypsin, 0.02% EDTA, and pelleting and resuspension in the appropriate medium with or without 5% FCS at a density of about 50,000 cells per ml. When appropriate, purified bovine plasma fibronectin (Sigma), purified 120 kDa chymotryptic fragment (Gibco BRL), PHSRN (SEQ ID NO:1) or PHSCN (SEQ ID NO:86) peptides (synthesized at the Biomedical Research Core Facilities of the University of Michigan), or GRGDSP (SEQ ID NO:83) or GRGESP (SEQ ID NO:84) peptides (Gibco BRL) were added to the resuspended cells prior to placement of the cells on SU-ECM. In each well of a plate used for an invasion assay, SU-ECM were placed in 0.5 ml of the appropriate medium, and 0.5 ml of the resuspended cells dropped on their exterior surfaces. Invasion assays were incubated 1 to 16 hours prior to assay. If some circumstances, invasion assays were fixed in phosphate-buffered saline (PBS) with 2% formaldehyde for 5 minutes at room temperature, then rinsed into PBS.
(§3) Invasion assays were coded and scored blindly by microscopic examination under phase contrast at 200- and 400-fold magnification. Each cell contacting an SU-ECM was scored for its position relative to the exterior or interior surfaces. A cell was judged to have invaded if it was located on an interior surface below the focal plane passing through the upper surface of the SU-ECM, but above the focal plane passing through its lower surface. The minimum viability of the cells in each assay was always ascertained at the time of assay by determining the fraction of spread, adherent cells on the bottom of each well scored.
(§4) An invasion frequency is defined as the fraction of cells in contact with basement membranes which were located in their interiors at the time of assay. Thus, an invasion frequency of 1 denotes invasion by 100% of the cells in contact with basement membranes. Invasion frequencies were determined multiple times for each cell type assayed. For each type of cell assayed the mean and standard deviation of the invasion frequencies were calculated.
The result of adding a varying concentration of the PHSCN (SEQ ID NO:86) peptide to PHSRN-induced (SEQ ID NO:1) MLL cells in serum free media is shown in FIG. 7B, where 100 ng per ml of PHSRN (SEQ ID NO:1) was used to induce invasion.
The procedure described in Example 10, was employed using SU-ECM substrates in 10% FCS and PHS(hC)N (SEQ ID NO:85) instead of PHSCN (SEQ ID NO:86). The result of adding varying concentrations of the PHS(hC)N (SEQ ID NO:85) peptide to serum-induced MLL cells indicates this peptide also has an inhibitory affect on cell invasion (see FIG. 8).

[2] = system: keratinocytes; assay: Keratinocyte invasion of serum-free SU-ECM; assay type: cell-based
Excerpt: Since, during wound reepithelialization, keratinocytes migrate through the connective tissue of the provisional matrix to “wall off” portions of the wound, as well as through the adjacent stroma, it is not surprising that they are also stimulated to migrate through the matrix of SU-ECM invasion substrates by the PHSRN (SEQ ID NO:1) sequence. […] Recruitment of fibroblasts or monocytes/macrophages whose paracrine, regulatory effects on a variety of neighboring cells are required for the early stages of wound healing is contemplated as a highly efficient and effective way to stimulate the cascade of regulatory interactions involved in wound healing because these cells will secrete the active factors or cytokines in the correct temporal sequences and spatial locations to ensure their optimal activities. Because it efficiently induces keratinocyte migration through the extracellular matrix in vitro, the PHSRN (SEQ ID NO:1) peptide is also likely to stimulate wound reepithelialization directly. The use of the PHSRN (SEQ ID NO:1) peptide or structurally related molecules according to the present invention is to stimulate the entry of cells such as fibroblasts and monocyte/macrophages into the provisional matrix of a wound, so that the entering cells themselves secrete the factors and cytokines active in inducing or potentiating wound healing. […]

[3] = system: metastatic SUM-52 PE breast cancer cells; assay: SU-ECM invasion assay, SUM-52 PE breast cancer cells; assay type: cell-based, human; details: SUM-52 cells
Protocol: Human breast carcinoma cell lines SUM 52 PE and SUM 44 PE were originally cultured from the pleural effusions of patients with metastatic breast cancer; and SUM 102 was cultured from a primary, microinvasive breast carcinoma (Ethier, S. P., Mahack, M. L., Gullick, W. J., Frank, T. S., and Weber, B. L. Differential isolation of normal luminal mammary epithelial cells and breast cancer cells from primary and metastatic sites using selective media. Cancer Res. 53: 627-635).
as §1, §2, §3, §4
The method of Example 4 is employed, with the addition of varying concentrations of the PHSCN (SEQ ID NO:86) peptide.
Thus, the procedure in Example 4 provides a method for determining the inhibitory potential of the PHSCN (SEQ ID NO:86) peptide by comparing the number of cell invasions in the presence of the PHSCN (SEQ ID NO:86) peptide, with the number of cell invasions in the absence of the PHSCN (SEQ ID NO:86) peptide.

[4] = system: normal, neonatal fibroblasts; assay: Invasion of gelatin- and antibody-depleted Matrigel by fibroblasts; assay type: cell-based; details: Matrigel depleted by gelatin and antibody panning, FIG. 4
Protocol: Anti-fibronectin antibody-coated wells: Wells of a 24-well plate were coated with an anti-fibronectin antibody. A mouse monoclonal antibody to human fibronectin was obtained from Oncogene Science (Catalog #CP13). Each well was incubated with 1 ml of antibody at a concentration of 30 μl/ml for 2 hours at room temperature. Each well was then incubated with a solution of 3% BSA in PBS for 2 hours at room temperature. Following the two incubation periods, the wells were thoroughly washed with PBS and stored at −20 C. until use.
Depleting Matrigel of Fibronectin: Matrigel was panned over eight gelatin-coated wells (as described above in Example 2) to remove most of the fibronectin and its fragments. Thereafter, the Matrigel was placed in the antibody-coated wells to remove any remaining fragments of fibronectin which contain the cell-binding domain but not the gelatin-binding domain. The Matrigel was incubated in an ice bucket on an orbital shaker at 4 C. for 2 hours. Once the Matrigel was depleted, it was collected in Eppendorf tubes. The firbonectin-depleted Matrigel was plated on a 48-well plate (150 μl/well), sterilized under a UV light for 10 minutes and incubated at 37 C. overnight. The Matrigel formed a gel and the following day, cells were added to the wells. […]

[5] = system: neonatal, human fibroblasts; assay: Fibroblast invasion of SU-ECM basement membranes; assay type: cell-based; details: for stimulation of fibroblast invasion of basement membranes in vitro: in the presence of serum or under serum-free conditions
Protocol: as §1
as §2, with “If some circumstances, invasion assays were fixed in phosphate-buffered saline (PBS) with 2% formaldehyde for 5 minutes at room temperature, then rinsed into PBS.” left out
Invasion assays were coded and scored blindly by microscopic examination under phase contrast at 200- and 400-fold magnification. Each cell contacting an SU-ECM was scored for its position relative to the exterior or interior surfaces. […] The minimum viability of the cells in each assay was always ascertained at the time of assay by determining the fraction of spread, adherent cells on the bottom of each well scored.
An invasion frequency is defined as the fraction of cells in contact with basement membranes which were located in their interiors at the time of assay. […] Invasion frequencies were determined multiple times for each cell type assayed. For each type of cell assayed the mean and standard deviation of the invasion frequencies were calculated. […]

[6] = system: metastatic DU-145 prostate cancer cells; assay: SU-ECM invasion assay, DU-145 prostate cancer cells; assay type: cell-based, human; details: DU-145 cells
[7] = system: DU-145 metastatic prostate cancer cells; assay: Invasion of fibronectin-depleted Matrigel by DU-145 cells; assay type: cell-based, human; details: 0.5 μl/ml peptide added to gelatin-panned Matrigel, FIG. 3
Protocol: This example describes a purification approach for removal of plasma fibronectin (and/or cellular fibronectin) from a substrate (Matrigel). In this example, removal was attempted by successive panning on gelatin. Eight wells of 24-well plate were coated with a 2% gelatin solution (the gelatin was obtained from Becton Dickinson Labware, Catalog #11868). The wells were filled with the gelatin solution which had been heated to 50 C. and incubated for 3 minutes. Then the solution was removed and the wells were allowed to air dry. Following drying, the wells were thoroughly rinsed with ddH2O followed by two rinses with PBS. The plates were again allowed to dry; thereafter they were stored at −20 C. until use. Matrigel was thawed on ice and then added to one of the wells of a gelatin-coated plate (between 800 μl and 1 ml of Matrigel was added to a well of a 24-well plate). The plate was placed in a bucket of ice in a 4 C. room on an orbital shaker where the Matrigel was incubated in the well for two hours (although overnight incubation can be used). Following the incubation, the Matrigel was moved from the first well to a second well and then incubated for two hours under the same conditions. This process was repeated until the Matrigel had been incubated on all eight wells of the gelatin-coated plate.
Following the depletion of the Matrigel, it was collected in Eppendorf tubes. […]

Substance | inhibition of serum-induced invasion of SU-ECM ([1]; higher concentrations) | inhibition of serum-induced invasion of SU-ECM ([1]; lower concentrations) | stimulation of keratinocyte invasion [2] | induction of invasion of the SU-ECM substrate [3] | induction of fibroblast invasiveness on depleted Matrigel [4] | stimulation of fibroblast invasion of basement membranes in vitro [5] | induction of fibroblast invasion of SU-ECM ([5]; serum-free SU-ECM) | induction of invasion of the SU-ECM substrate [6] | restoration of DU-145 invasiveness on depleted Matrigel [7]
PHS(hC)N: homo-cysteine containing peptide (PHS[hCys]N) | completely inhibits invasion | substantially inhibits invasion |  |  |  |  |  |  | 
Pro-His-Ser-Arg-Asn (PHSRN) |  |  | stimulate keratinocyte invasion | induced to invade | invasiveness of the fibroblasts could be induced | sufficient to stimulate fibroblast invasion | induced | induced to invade | sufficient to restore the full DU-145 invasiveness
intact plasma fibronectin: purified bovine plasma fibronectin (Sigma); a significant component of serum |  |  |  | induced to invade |  | fails to stimulate fibroblast invasion |  | induced to invade | 
